In this assay the target is hTREM2 (Homo sapiens, UniProt Q9NZC2). Kind of assay: TREM2 activity by cellular Syk phosphorylation (AlphaScreen/AlphaLISA) in TREM2/DAP12-HEK cells, used for Examples 1-305. Set-up: expressed in transfected cells. To be noted: HEK293 Cells. The class given is cell-based. A digest of the protocol:
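Single-cell-cloned HEK293 cells overexpressing TREM2 and DAP12, seeded 20 h, exposed to test articles (1% final DMSO) for 45 min at room temperature. Lysates read for phospho-Syk (Tyr525/526) vs total Syk by AlphaScreen. Signal normalised as percent of control between isotype IgG and 100 nM anti-TREM2 antibody; 4-parameter logistic fit.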
For orientation: In Alpha technology, singlet oxygen from a donor bead excites a nearby acceptor bead.

Consider 28 compounds from patent US11884675B2, “Heterocyclic compounds as triggering receptor expressed on myeloid cells 2 agonists and methods of use” (AMGEN INC., priority 2020, dated 2024).

Molecules are shown by their SMILES.

Sequence of hTREM2 (Q9NZC2 19-230): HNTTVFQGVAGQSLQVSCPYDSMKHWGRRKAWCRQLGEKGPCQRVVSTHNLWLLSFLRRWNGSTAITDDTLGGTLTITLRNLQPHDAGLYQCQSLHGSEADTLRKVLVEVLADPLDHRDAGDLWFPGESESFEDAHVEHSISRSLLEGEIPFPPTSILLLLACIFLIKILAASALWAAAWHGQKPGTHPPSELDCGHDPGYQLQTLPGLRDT
Sequence of hTREM2 (O43914 22-113 partner): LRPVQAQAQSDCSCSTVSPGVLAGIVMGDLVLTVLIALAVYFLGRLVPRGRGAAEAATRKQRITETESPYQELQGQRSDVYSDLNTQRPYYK

The term EC50 denotes the concentration needed to bring the measured effect to its halfway point. Read a high EC50 as a need for much substance. On to `Cc1ccc(-c2nc(N3CCO[C@@H](c4cnn(C5CC5)c4)C3)nc3nc(C)cnc23)c(F)c1` [Example 9, 2-((2S)-2-(1-cyclopropyl-1H-pyrazol-4-yl)-4-morpholinyl)-4-(2-fluoro-4-methylphenyl)-7-methylpteridine], for which the 50% effective concentration (EC50) was at most 50 nM; the “hTREM2 Emax” value is “+++ (Emax>150 and ≤250)”.
Turning to `Cc1nc2nc(N3CCO[C@@H](c4cnn(C)c4)C3)nc(N3CC(C(F)F)C3)c2nc1C` [Example 269, (S)-4-(4-(3-(difluoromethyl)azetidin-1-yl)-6,7-dimethylpteridin-2-yl)-2-(1-methyl-1H-pyrazol-4-yl)morpholine], the EC50 was 3000 to 100000 nM; the “hTREM2 Emax” value was “+ (Emax>45 and ≤100)”.
`Cc1nc2nc(N3CCO[C@@H]([C@@H]4CCOC4)C3)nc(-c3ccc(F)cc3F)c2nc1C` (single isomer, unassigned) [Example 34]: the half-maximal effective concentration (EC50) was 500 to 3000 nM; the “hTREM2 Emax” value was “+++ (Emax>150 and ≤250)”.
`Cc1cc([C@H]2CN(c3cc(-c4ccc(Cl)cc4F)c4nc(C)c(C)nc4c3)CCO2)ccn1` [Example 163, 5-(4-chloro-2-fluorophenyl)-2,3-dimethyl-7-((2S)-2-(2-methyl-4-pyridinyl)-4-morpholinyl) quinoxaline]: the EC50 is at most 50 nM and the “hTREM2 Emax” value was “++++ (Emax>250)”.
As to `COc1cc([C@H]2C[C@@H](c3nc(-c4ccc(Cl)cc4F)c4nc(C)c(C)nc4n3)CCO2)ccn1` (single isomer, unassigned) [Example 208], the EC50 is at most 50 nM; the “hTREM2 Emax” value was “+++ (Emax>150 and ≤250)”.
For `Cc1ccc(-c2nc([C@H]3CCO[C@H](c4cnn(C)c4)C3)nc3nc(C)c(C)nc23)c(F)c1` [Example 264, 4-(2-fluoro-4-methylphenyl)-6,7-dimethyl-2-((2S,4S)-2-(1-methyl-1H-pyrazol-4-yl)tetrahydro-2H-pyran-4-yl)pteridine], the EC50 lay in the range of 500 to 3000 nM and the “hTREM2 Emax” value is “++++ (Emax>250)”.
In the case of `Cc1ncc2c(-c3ccc(Cl)cc3F)cc(N3CCO[C@@H](c4cnn(C)c4)C3)cc2n1` [Example 153, 5-(4-chloro-2-fluorophenyl)-2-methyl-7-((2S)-2-(1-methyl-1H-pyrazol-4-yl)-4-morpholinyl) quinazoline], the EC50 lay in the range of 50 to 500 nM; the “hTREM2 Emax” value was “+++ (Emax>150 and ≤250)”.
In the case of `Cc1cnc2c(-c3ccc(Cl)cc3F)nc(N3CCO[C@H](c4cnc(C)nc4)C3)nc2n1` [Example 261, (R)-4-(4-(4-chloro-2-fluorophenyl)-7-methylpteridin-2-yl)-2-(2-methylpyrimidin-5-yl)morpholine], the EC50 was in the range of 500 to 3000 nM; the “hTREM2 Emax” value is “+++ (Emax>150 and ≤250)”.
With `Cc1cnc2nc(N3CCO[C@@H](c4cnn(C)c4)C3)cc(-c3ccc(Cl)cc3F)c2n1` [Example 158, 8-(4-chloro-2-fluorophenyl)-2-methyl-6-((2S)-2-(1-methyl-1H-pyrazol-4-yl)-4-morpholinyl)pyrido [2,3-b]pyrazine], the EC50 was in the range of 50 to 500 nM; the “hTREM2 Emax” value was “+++ (Emax>150 and ≤250)”.
For `Cc1ccc2c(C3CCC(F)(F)CC3)nc(N3CCO[C@@H](c4cnn(C5CC5)c4)C3)nc2n1` [Example 143, 2-((2S)-2-(1-cyclopropyl-1H-pyrazol-4-yl)-4-morpholinyl)-4-(4,4-difluorocyclohexyl)-7-methylpyrido [2,3-d]pyrimidine], the EC50 was 50 to 500 nM; the “hTREM2 Emax” value is “+++ (Emax>150 and ≤250)”.
Turning to `Cc1nc2nc(N3CCO[C@@H](c4cnn(C)c4)C3)nc(C3CC(F)(F)C3)c2nc1C` [Example 146, 4-(3,3-difluorocyclobutyl)-6,7-dimethyl-2-((2S)-2-(1-methyl-1H-pyrazol-4-yl)-4-morpholinyl) pteridine], the EC50 lay within 500 to 3000 nM; the “hTREM2 Emax” value was “++ (Emax>100 and ≤150)”.
As for `Cc1cc([C@@H]2C[C@H](c3nc4nc(C)c(C)nc4c([C@H]4C[C@H](C(F)(F)F)C4)n3)CCO2)ccn1` (single isomer, unassigned) [Example 214], the EC50 is 50 to 500 nM and the “hTREM2 Emax” value is given as “++++ (Emax>250)”.
`Cc1nc2nc(N3CCO[C@@H](c4cnn(C5CC5)c4)C3)nc(-c3ccc(F)cc3F)c2nc1C` [Example 32, 2-((2S)-2-(1-cyclopropyl-1H-pyrazol-4-yl)-4-morpholinyl)-4-(2,4-difluorophenyl)-6,7-dimethylpteridine]: the EC50 is at most 50 nM; the “hTREM2 Emax” value was “+++ (Emax>150 and ≤250)”.
As for `Cc1nc2nc(N3CCOC(C4CCOC4)C3)nc(-c3ccc(Cl)cc3F)c2nc1C` (stereo not shown) [Example 26, 4-(4-chloro-2-fluorophenyl)-6,7-dimethyl-2-(2-(tetrahydro-3-furanyl)-4-morpholinyl)pteridine], the EC50 was at most 50 nM and the “hTREM2 Emax” value was “++++ (Emax>250)”.
As for `Cc1cnc2c(-c3ccc(Cl)cc3F)cc([C@@H]3CCO[C@H](c4cnn(C)c4)C3)nc2n1` [Example 271, 8-(4-chloro-2-fluorophenyl)-3-methyl-6-((2S,4R)-2-(1-methyl-1H-pyrazol-4-yl)tetrahydro-2H-pyran-4-yl)pyrido [2,3-b]pyrazine], the EC50 lay within 3000 to 100000 nM; the “hTREM2 Emax” value is “+++ (Emax>150 and ≤250)”.
Consider `Cc1ncc([C@@H]2CN(c3nc(-c4ccc(Cl)cc4F)c4nc(C)c(C)nc4n3)CCO2)cn1` (single isomer, unassigned) [Example 25], for which the EC50 was at most 50 nM and the “hTREM2 Emax” value is reported as “++++ (Emax>250)”.
Take `Cc1ccc2c(n1)nc(N1CCO[C@@H](c3cnn(C4CC4)c3)C1)nc2[C@H]1C[C@H](C(F)(F)F)C1` [Example 98, 2-((2S)-2-(1-cyclopropyl-1H-pyrazol-4-yl)-4-morpholinyl)-7-methyl-4-(trans-3-(trifluoromethyl)cyclobutyl)pyrido[2,3-d]pyrimidine]: the EC50 was in the range of 50 to 500 nM; the “hTREM2 Emax” value was “++ (Emax>100 and ≤150)”.
Take `Cc1nc2nc(N3CCO[C@@H](c4cnn(C)c4)C3)nc(C3=CCCC3)c2nc1C` [Example 128, 4-(1-cyclopenten-1-yl)-6,7-dimethyl-2-((2S)-2-(1-methyl-1H-pyrazol-4-yl)-4-morpholinyl)pteridine]: the EC50 was 500 to 3000 nM; the “hTREM2 Emax” value is “+ (Emax>45 and ≤100)”.
In the case of `Cc1cc([C@H]2CN(c3nc4nc(C)cnc4c([C@H]4C[C@H](C(F)(F)F)C4)n3)CCO2)ccn1` [Example 16, 7-methyl-2-((2S)-2-(2-methyl-4-pyridinyl)-4-morpholinyl)-4-(trans-3-(trifluoromethyl)cyclobutyl)pteridine], the EC50 was at most 50 nM; the “hTREM2 Emax” value was “+ (Emax>45 and ≤100)”.
Consider `Cc1nc2nc(N3CCO[C@H](c4cnn(C)c4)C3)nc(N3CCC[C@@H](F)C3)c2nc1C` [Example 262, (R)-4-(4-((R)-3-fluoropiperidin-1-yl)-6,7-dimethylpteridin-2-yl)-2-(1-methyl-1H-pyrazol-4-yl)morpholine], for which the EC50 is 3000 to 100000 nM.
As for `Cc1nc2nc([C@@H]3CCO[C@H](c4cnn(C)c4)C3)cc(-c3ccc(Cl)cc3F)c2nc1C` [Example 250, 8-(4-chloro-2-fluorophenyl)-2,3-dimethyl-6-((2S,4R)-2-(1-methyl-1H-pyrazol-4-yl)tetrahydro-2H-pyran-4-yl)pyrido[2,3-b]pyrazine], the EC50 lay in the range of 500 to 3000 nM; the “hTREM2 Emax” value is “+++ (Emax>150 and ≤250)”.
For the compound `CC(C)N1Cc2c(cc(N3CCO[C@@H](c4cnn(C)c4)C3)nc2-c2ccc(Cl)cc2F)C1=O` [Example 122, 4-(4-chloro-2-fluorophenyl)-6-((2S)-2-(1-methyl-1H-pyrazol-4-yl)-4-morpholinyl)-2-(2-propanyl)-2,3-dihydro-1H-pyrrolo[3,4-c]pyridin-1-one], the EC50 was 500 to 3000 nM; the “hTREM2 Emax” value is “+++ (Emax>150 and ≤250)”.
Take `Cc1cnc2c(n1)nc(N1CCO[C@@H](c3cnn(C)c3)C1)nc2[C@H]1C[C@@H](C(F)(F)F)C1` [Example 274, (S)-2-(1-methyl-1H-pyrazol-4-yl)-4-(7-methyl-4-((1s,3R)-3-(trifluoromethyl)cyclobutyl)pteridin-2-yl)morpholine]: the EC50 fell in the range of 3000 to 100000 nM; the “hTREM2 Emax” value is “++ (Emax>100 and ≤150)”.
In the case of `Cc1cnc2c(-c3ccc(Cl)cc3F)nc(N3CCO[C@@H](c4cnn(C5CC5)c4)C3)cc2n1` [Example 76, 5-(4-chloro-2-fluorophenyl)-7-((2S)-2-(1-cyclopropyl-1H-pyrazol-4-yl)-4-morpholinyl)-2-methylpyrido[3,4-b]pyrazine], the EC50 fell in the range of 50 to 500 nM and the “hTREM2 Emax” value was “++++ (Emax>250)”.
Take `Cc1cnc2c(-c3ccc(Cl)cc3F)nc(N3CCO[C@@H](c4cnn(C5COC5)c4)C3)cc2n1` [Example 129, 5-(4-chloro-2-fluorophenyl)-2-methyl-7((2S)-2-(1-(3-oxetanyl)-1H-pyrazol-4-yl)-4-morpholinyl) pyrido[3,4-b]pyrazine]: the EC50 was 50 to 500 nM and the “hTREM2 Emax” value was “++++ (Emax>250)”.
With `Cc1cc([C@H]2CN(c3nc(CCC(F)(F)F)c4nc(C)c(C)nc4n3)CCO2)ccn1` [Example 41, 6,7-dimethyl-2-((2S)-2-(2-methyl-4-pyridinyl)-4-morpholinyl)-4-(3,3,3-trifluoropropyl)pteridine], the EC50 lay within 50 to 500 nM; the “hTREM2 Emax” value is “+ (Emax>45 and ≤100)”.
As for `COc1cc([C@H]2CN(c3cc4nc(C)cnc4c(-c4ccc(Cl)cc4F)n3)CCO2)ccn1` [Example 78, 5-(4-chloro-2-fluorophenyl)-7-((2S)-2-(2-methoxy-4-pyridinyl)-4-morpholinyl)-2-methylpyrido[3,4-b]pyrazine], the EC50 is 50 to 500 nM; the “hTREM2 Emax” value was “+++ (Emax>150 and ≤250)”.
With `Cc1nc2nc([C@@H]3CCO[C@H](c4cnn(C)c4)C3)nc(-c3ccc(F)cc3F)c2nc1C` [Example 256, 4-(2,4-difluorophenyl)-6,7-dimethyl-2-((2S,4R)-2-(1-methyl-1H-pyrazol-4-yl)tetrahydro-2H-pyran-4-yl)pteridine], the EC50 was in the range of 500 to 3000 nM; the “hTREM2 Emax” value is “++ (Emax>100 and ≤150)”.
